Format in all cases: biochemical, human
The test system of assay [1] is PCT. Nature of the assay: Signal-to-noise ratio and linear range for PCT detection, purified fusion proteins (Example 3). Set-up: key: luminescence normalized against the background value. Particulars: PCT 3.3 (pg/ml); normalized against the background value.
The subject of assay [2] is PCT. Nature of the assay: Complementation of purified rSCFV18-small subunit mutant fusion protein with large subunit-rSCFV5 fusion protein, PCT gradient (Example 2). Particulars: for luminescence value: CTZ-h 25 µM, 20 s; for Signal-to-noise ratio at 1000 pg/ml: PCT 1000 pg/ml versus 0. Here is the method:
Protein expression and purification of small subunit mutants: The strains containing plasmids of different small subunits inTable 2, prepared in Example 1, were inoculated into 200ml of 2YTA medium and cultured at 37°C with shaking at 250 rpm for about 3h. When the OD600 reached 1.0, IPTG was added to a final concentration of 1mM, and the culture was further incubated at 30°C with shaking at 250rpm for 20h. The culture were centrifuged at 5,000g for 10min, and the precipitate was resuspended with 10ml of PBS, added with polymyxin B to 20,000u/ml. The suspension was inverted and mixed at room temperature for 1h, and centrifuged at 10,000g to collect the supernatant. The rSCFV18-small subunit mutant fusion protein was purified according to the standard procedure for his-tag protein purification using Ni-NTA resin.
In the same tube, the large subunit-rSCFV5 fusion protein was diluted with PBSA to 50 nM; rSCFV18-small subunit mutant fusion protein was diluted to 90 nM, mixed well, and then 22 µl was added per well; the MBP-PCT fusion protein was diluted in 3-fold gradient with PBSAD (in pg/ml), with 8 gradients in total, 10µl was added per well, and the background control was PBSAD and 10 µl was added per well; the plate was mixed with slight shaking and incubated at 37°C for 6 min, 50 µl of Obuffer 6.37-3 containing 25 µM of CTZ-h then was added, and after 20 s, the luminescence value was detected.

The subject of assay [3] is PCT. Description: Luciferase dual-antibody complementary activation assay for PCT detection, clone supernatants, retest with CTZ-h (Example 1). Particulars: for Signal-to-noise ratio: RLU antigen+/RLU antigen-, MBP-PCT 3.3 ng/ml, CTZ-h; for PCT+: luminescence signal value with MBP-PCT 3.3 ng/ml, large subunit-rSCFV5 50 nM, supernatant; for PCT+ / PCT-: retest CTZ-h 25 µM, read after 60 s; for PCT-: luminescence signal value, background control PBSAD without PCT.

For assay [4], the system named is PCT. Description: Signal-to-noise ratio and linear range for PCT detection, purified fusion proteins (Example 3). Particulars: for Signal-to-noise ratio at 1000 pg/ml: large subunit 100 nM, small subunit fusion 180 nM, CTZ-h 25 µM, 140 s. Also on record: key to luminescence value: luminescence normalized against the background value. Here is the method: Test Methods: • (1) MBP-PCT protein was diluted with PBSAD in 10-fold gradient starting from 100 ng/ml, with 8 gradients in total, and 10 µl was added per well; • (2) The large subunit-SCFV5 fusion protein was diluted with PBSA to 100 nM, and 10 µl was added per well; • (3) Different rSCFV18-small subunit mutant fusion proteins were diluted with PBSA to 180 nM, and 10 µl of each was added per well; • (4) The plate was mixed slightly and incubated at 37°C for 10 min; and • (5) 50 µl of Obuffer 6.37-3 containing 25 µM of CTZ-h was added, and after 140 s, the luminescence value was detected. The results are shown after normalization against the background value.

Where [5] appears, read: PCT 0 pg/ml (background control PBSAD).
Setting [6] is: PCT 1000 pg/ml, large subunit 50 nM, small subunit fusion 90 nM.
The mark [7] stands for this setting: PCT 100 (pg/ml), normalized against the background value.
Where [8] appears, read: PCT 1000 (pg/ml), normalized against the background value.
Setting [9] is: PCT 10000 (pg/ml), normalized against the background value.
The mark [10] stands for this setting: PCT 100000 (pg/ml), normalized against the background value.

For the sequence VEGYRLFDRKS [RB073], the luminescence value in the assay on PCT [1] was 5283; with PCT [2] (setting [5]), 412; with PCT [2] (PCT 1.37 pg/ml), 358; in the assay with PCT [2] (PCT 4.12 pg/ml) it was 475; in the assay with PCT [2] (PCT 12.35 pg/ml), 591; in the assay with PCT [2] (PCT 37.04 pg/ml), 1013. For the same sequence, the luminescence value with PCT [2] (PCT 111.1 pg/ml) stood at 2302; with PCT [2] (PCT 333.3 pg/ml) it was 5886; in the assay on PCT [2] (setting [6]), 16026; in the assay on PCT [4] (PCT 0, background, normalized), 5000; in the assay with PCT [4] (setting [7]), 12151; with PCT [4] (setting [8]) it was 72352. Moreover, the figures for the luminescence value in the assay with PCT [4] (setting [9]) and in the assay with PCT [4] (setting [10]) were 566678 and 1966617, respectively. Also, the “Signal-to-noise ratio at 1000 pg/ml” value in the assay with PCT [2] came out at 38.9; in the assay with PCT [4] it was 14.5. Moreover, the Signal-to-noise ratio with PCT [3] is on record as 48. The “PCT+” value in the assay with PCT [3] came to 46672. In the assay with PCT [3], this sequence returned a PCT- of 953. For the same sequence, in the assay on PCT [4] (statement in words on Table 3 and Figure 2), the “signal-to-noise ratios in luciferase dual-antibody complementary activation for PCT detection” value is “higher signal-to-noise ratios”.

With VTGYRLFEEIL [P114, reference compound], the luminescence value came out at 4789 in the assay with PCT [1]; 333 with PCT [2] (setting [5]); 398 in the assay with PCT [2] (PCT 1.37 pg/ml); 383 in the assay on PCT [2] (PCT 4.12 pg/ml); 400 with PCT [2] (PCT 12.35 pg/ml); 435 with PCT [2] (PCT 37.04 pg/ml). Further, the luminescence value with PCT [2] (PCT 111.1 pg/ml) worked out at 495; in the assay with PCT [2] (PCT 333.3 pg/ml), 656; in the assay with PCT [2] (setting [6]), 1256; in the assay with PCT [4] (PCT 0, background, normalized), 5000; with PCT [4] (setting [7]) it was 7073; in the assay with PCT [4] (setting [8]), 18839. Further, the figures for the luminescence value with PCT [4] (setting [9]) and in the assay on PCT [4] (setting [10]) were 129750 and 642399, respectively. Further, the “Signal-to-noise ratio at 1000 pg/ml” value in the assay with PCT [2] came to 1.44; in the assay with PCT [4] it was 3.8. In the assay with PCT [3], the Signal-to-noise ratio amounted to 12.2. Moreover, the “PCT+” value with PCT [3] is 5058. In the assay on PCT [3], this sequence had a PCT- of 414.
